# Laboratory results as given in ChEMBL document CHEMBL2331299, “Basic N-interlinked imipramines show apoptotic activity against malignant cells including Burkitt's lymphoma” (Bioorg Med Chem Lett, 2013).
# Activity calls are given as the source filed them. The calls are words filed in the database; no cut-off is given here.
# Tests used:
# [1] = biological target: Sodium-dependent serotonin transporter (Homo sapiens, UniProt P31645); test: Inhibition of human SERT expressed in HEK293-MSR cells by 5-HT uptake assay; assay type: cell-based
# DG-75 [2] = test: Induction of apoptosis in human DG75 cells assessed as cell death at 2.5 uM in presence of NAC ROS inhibitor; assay type: functional, cell-based
# HeLa [3] = test: Induction of apoptosis in human HeLa cells assessed as cell death at 2.5 uM in presence of NAC ROS inhibitor; assay type: functional, cell-based
# MUTU-I [4] = test: Induction of apoptosis in human MUTU-I cells assessed as cell death at 2.5 uM in presence of NAC ROS inhibitor; assay type: functional, cell-based
# DG-75 [5] = test: Induction of apoptosis in human DG75 cells assessed as increase in caspase 3/7 activation by luminescence plate reader; assay type: functional, cell-based
# DG-75 [6] = test: Induction of apoptosis in human DG75 cells assessed as PARP cleavage by Western blotting analysis; assay type: functional, cell-based
# HeLa [7] = test: Induction of apoptosis in human HeLa cells assessed as increase in intracellular cysteine proteases; assay type: functional, cell-based
# MUTU-I [8] = test: Induction of apoptosis in human MUTU-I cells assessed as increase in intracellular cysteine proteases; assay type: functional, cell-based
# HeLa [9] = test: Induction of apoptosis in human HeLa cells assessed as increase in caspase 3/7 activation by luminescence plate reader; assay type: functional, cell-based
# MUTU-I [10] = test: Induction of apoptosis in human MUTU-I cells assessed as increase in caspase 3/7 activation by luminescence plate reader; assay type: functional, cell-based
# HeLa [11] = test: Induction of apoptosis in human HeLa cells assessed as PARP cleavage by Western blotting analysis; assay type: functional, cell-based
# MUTU-I [12] = test: Induction of apoptosis in human MUTU-I cells assessed as PARP cleavage by Western blotting analysis; assay type: functional, cell-based
# HeLa [13] = test: Induction of apoptosis in human HeLa cells assessed as cell death at 2.5 uM after 8 hrs by flow cytometry; assay type: functional, cell-based
# DG-75 [14] = test: Induction of apoptosis in human DG75 cells assessed as cell death at 2.5 uM measured after 24 hrs by flow cytometry; assay type: functional, cell-based
# MUTU-I [15] = test: Induction of apoptosis in human MUTU-I cells assessed as cell death at 2.5 uM after 2 hrs by flow cytometry; assay type: functional, cell-based
# HeLa [16] = test: Induction of apoptosis in human HeLa cells assessed as decrease in cells at G2/M phase measured at 2.5 uM after 24 hrs by propidium iodide assay; assay type: functional, cell-based
# DG-75 [17] = test: Induction of apoptosis in human DG75 cells assessed as decrease in cells at G2/M phase measured at 2.5 uM after 24 hrs by propidium iodide assay; assay type: functional, cell-based
# MUTU-I [18] = test: Induction of apoptosis in human MUTU-I cells assessed as decrease in cells at G2/M phase measured at 2.5 uM after 24 hrs by propidium iodide assay; assay type: functional, cell-based
# HeLa [19] = test: Induction of apoptosis in human HeLa cells assessed as cell death at 2.5 uM after 24 hrs by flow cytometry (reference value: 7 +/- 1.9%); assay type: functional
# DG-75 [20] = test: Induction of apoptosis in human DG75 cells assessed as cell death at 2.5 uM after 24 hrs by flow cytometry (reference value: 0.8 +/- 0.25%); assay type: functional
# [21] = (§1) Induction of apoptosis in human MUTU-I cells assessed as cell death at 2.5 uM after 24 hrs by flow cytometry (reference value: 3.7 +/- 0.4%); assay type: functional
# HeLa [22] = test: Reduction in cell viability of human HeLa cells after 24 hrs by Alamar blue viability assay; assay type: functional, cell-based
# DG-75 [23] = test: Reduction in cell viability of human DG75 cells after 24 hrs by Alamar blue viability assay; assay type: functional, cell-based; conditions: DG-75, 24 h
# [24] = Reduction in cell viability of human MUTU-I cells after 24 hrs by Alamar blue viability assay; assay type: functional, cell-based
# DG-75 [25] = test: Induction of apoptosis in human DG75 cells assessed as increase in cells at G2/M phase measured at 2.5 uM after 24 hrs by propidium iodide assay; assay type: functional, cell-based
# MUTU-I [26] = test: as §1; assay type: functional
# Chain of Sodium-dependent serotonin transporter (P31645 whole entry): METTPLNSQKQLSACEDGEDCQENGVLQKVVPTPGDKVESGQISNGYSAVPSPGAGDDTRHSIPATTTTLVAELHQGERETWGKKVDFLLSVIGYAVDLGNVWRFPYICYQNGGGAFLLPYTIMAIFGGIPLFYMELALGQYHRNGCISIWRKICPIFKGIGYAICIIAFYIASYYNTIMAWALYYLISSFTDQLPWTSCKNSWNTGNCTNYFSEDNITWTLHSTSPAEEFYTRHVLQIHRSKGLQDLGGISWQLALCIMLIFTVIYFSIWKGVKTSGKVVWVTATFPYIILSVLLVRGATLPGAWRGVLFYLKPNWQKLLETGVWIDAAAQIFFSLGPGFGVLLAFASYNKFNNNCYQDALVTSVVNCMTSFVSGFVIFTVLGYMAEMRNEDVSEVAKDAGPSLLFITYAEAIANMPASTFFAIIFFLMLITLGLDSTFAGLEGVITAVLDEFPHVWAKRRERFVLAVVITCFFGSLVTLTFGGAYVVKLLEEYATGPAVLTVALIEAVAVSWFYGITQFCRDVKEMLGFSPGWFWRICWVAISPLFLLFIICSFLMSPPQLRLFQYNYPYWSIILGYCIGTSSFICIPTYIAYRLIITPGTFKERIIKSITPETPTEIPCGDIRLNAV
Structure (SMILES),IC50 [1],Activity (DG-75 [2]),Activity (HeLa [3]),Activity (MUTU-I [4]),Activity (DG-75 [5]),Activity (DG-75 [6]),Activity (HeLa [7]),Activity (MUTU-I [8]),Activity (HeLa [9]),Activity (MUTU-I [10]),Activity (HeLa [11]),Activity (MUTU-I [12]),Activity (HeLa [16]),Activity (DG-75 [17]),Activity (MUTU-I [18]),Activity (HeLa [19]),Activity (DG-75 [20]),IC50 (HeLa [22]),IC50 (DG-75 [23]),IC50 [24],other results
CN(CCCN1c2ccccc2CCc2ccccc21)CCOCCOCCOCCN(C)CCCN1c2ccccc2CCc2ccccc21,5.5 µM,Active,Active,Active,inactive,inactive,Active,Active,Active,Active,Active,Active,Active,Active,Active,46%,54.6%,1.58 µM,1.91 µM,1.15 µM,Activity (HeLa [13]): Active; Activity (DG-75 [14]): Active; Activity (MUTU-I [15]): Active; Activity [21]: 46.3%
CNCCCN1c2ccccc2CCc2ccccc21 [DESIPRAMINE],–,–,–,–,–,–,–,–,–,–,–,–,inactive,inactive,inactive,–,–,17.8 µM,39.8 µM,7.94 µM,–
CC(=O)O[C@H]1C(=O)[C@@]2(C)[C@H]([C@H](OC(=O)c3ccccc3)[C@]3(O)C[C@H](OC(=O)[C@H](O)[C@@H](NC(=O)c4ccccc4)c4ccccc4)C(C)=C1C3(C)C)[C@]1(OC(C)=O)CO[C@@H]1C[C@@H]2O,–,–,–,–,–,–,–,–,–,–,–,–,–,–,–,Active,inactive,–,–,–,Activity (DG-75 [25]): Active; Activity (MUTU-I [26]): Active
CN(CCCN1c2ccccc2CCc2ccccc21)CCOCCN(C)CCCN1c2ccccc2CCc2ccccc21,6 µM,Active,Active,Active,inactive,inactive,Active,Active,Active,Active,Active,Active,Active,Active,Active,61.7%,22.8%,1.74 µM,1.89 µM,1.05 µM,Activity (HeLa [13]): Active; Activity (DG-75 [14]): Active; Activity (MUTU-I [15]): Active; Activity [21]: 66.6%
CN(CCCN1c2ccccc2CCc2ccccc21)C(=O)COCCOCC(=O)N(C)CCCN1c2ccccc2CCc2ccccc21,46 µM,–,–,–,–,–,–,–,–,–,–,–,inactive,inactive,inactive,–,–,22.9 µM,18.6 µM,5.75 µM,–
CN(C)CCCN1c2ccccc2CCc2ccccc21 [IMIPRAMINE],–,–,–,–,–,–,–,–,–,–,–,–,inactive,inactive,inactive,–,–,40.7 µM,> 50 µM,14.1 µM,–
CN(CCCN1c2ccccc2CCc2ccccc21)CCOCCOCCN(C)CCCN1c2ccccc2CCc2ccccc21,4.8 µM,Active,Active,Active,inactive,inactive,Active,Active,Active,Active,Active,Active,Active,Active,Active,44.4%,40.9%,1.41 µM,1.51 µM,0.62 µM,Activity (HeLa [13]): Active; Activity (DG-75 [14]): Active; Activity (MUTU-I [15]): Active; Activity [21]: 56.2%
